# Source: PubChem BioAssay AID1996
# Conditions: buffer; pH 7.4; 200.0 µM
row,solubility kinetic [µg/mL],Compound
1,36.4,COCCN1CCn2c(nc3cc(NC(C)=O)ccc32)C1
2,> 47.9,O=C1CCCC(=O)N1c1ccc(N2CCOCC2)c([N+](=O)[O-])c1
3,0.7,Cc1c(C(=O)NC2CCC(C)CC2)oc2ccccc12 (stereo unspecified)
4,> 28.8,O=c1[nH]cnc2sc3c(c12)CCC3
5,8.1,Cc1ccc2c(CC(=O)N3CCN(c4ccccc4)CC3)coc2c1
6,5.5,CC(=O)Nc1ccccc1C(F)(F)F
7,> 25.7,CC1=NN(C(N)=S)C(C)(C)C1
8,> 45,COc1ccc(NC(=O)[C@@H](NC(N)=O)C(C)C)cc1Cl
9,9.2,O=C(CCC(=O)N1CCCCCC1)Nc1ccc([N+](=O)[O-])cc1
10,17,COc1cc([N+](=O)[O-])ccc1NC(=O)NCc1cccnc1
11,> 35.3,COc1ccc(NC(=O)C2CCOC2=O)cc1 (stereo unspecified)
12,> 46.9,CCN(CC)CC(=O)N1c2ccccc2Sc2ccccc21
13,16.1,O=[N+]([O-])c1ccc(CSC2=NCCS2)cc1
14,0.9,Cc1ccccc1Cn1cnc2c(oc3ccccc32)c1=O
15,31,Cc1cc(NC(=O)C2CC(=O)N(c3ccc(Cl)cc3)C2)no1 (stereo unspecified)
16,31.6,O=[N+]([O-])c1cc(-n2cccc2)ccc1N1CCOCC1
17,36,COc1ccc(OCCCn2ccnc2)cc1.Cl
18,2.9,CCC(C)C(=O)Nc1ccccc1N1CCN(c2ccc(F)cc2)CC1 (stereo unspecified)
19,> 58.6,NC(=O)NC(Cc1ccccc1)C(=O)NNC(=O)COc1ccccc1Cl (stereo unspecified)
20,33.4,CCc1ccccc1NC(=O)C1COc2ccccc2O1 (stereo unspecified)
21,> 38.4,Cn1cnc2c1c(=O)[nH]c(=O)n2Cc1ccccc1
22,> 47.5,CCc1noc(C)c1C(=O)OCC(=O)NC(C)c1ccccc1 (stereo unspecified)
23,1.7,CC(=O)Nc1ccc(NC(=O)c2cccc3ccccc23)cc1
24,> 56.9,CC(OC(=O)CN1C(=O)C2C3C=CC(C4CC34)C2C1=O)C(=O)c1ccccc1 (stereo unspecified)

row,solubility kinetic [µg/mL],Compound
1,> 38.4,Cc1ccc(NS(=O)(=O)N2CCOCC2)cc1
2,> 35.5,S=c1[nH]c2cc(Cl)c3cccnc3c2o1
3,> 50.3,CC1(C)Cc2nc3sc(C(=O)NCCCO)c(N)c3cc2CO1
4,> 38.3,Cc1ccc(Nc2ncnc3sccc23)c(C)c1
5,2,COc1ccccc1/C=C/C(=O)NC1CC2CCC1C2 (stereo unspecified)
6,> 41.9,Cc1ccc(NC(=O)CCc2c[nH]c3ccccc23)nc1
7,24.8,Cc1cccc(C)c1NC(=O)c1cnccn1
8,> 33.2,COc1ccccc1NC(=O)/C=C/C(=O)O
9,36.4,COc1ccc(NC(=O)CCCc2ccccc2)c(OC)c1
10,40.2,CC(C)(C)N1CC(C(=O)Nc2ccc(C#N)cc2)CC1=O (stereo unspecified)
11,25.1,CCOc1ccc(NC(=O)COC(=O)Cc2ccsc2)cc1
12,> 44.2,CN(C)C(=O)c1cc(C(=O)c2ccc(F)cc2Cl)c[nH]1
13,43.2,CCC1CN(C(=O)NCc2ccccc2)c2ccccc2O1 (stereo unspecified)
14,29.5,O=C(CSc1ccccn1)Nc1cccc2ccccc12
15,38.1,CCOc1ccc(C2(C)NC(=O)N(CCN(C)C)C2=O)cc1 (stereo unspecified)
16,16.7,O=C1Cc2cc(S(=O)(=O)NCc3ccc(F)cc3)ccc2N1
17,28.1,Cc1ccc(S(=O)(=O)Nc2cc(C)on2)cc1
18,> 53.9,COc1ccccc1CNC(=O)CN1C(=O)NC2(CCCCCC2)C1=O
19,> 53.3,Cc1ccc(Cl)c(NC(=O)COC(=O)c2cc[n+]([O-])cc2)c1Cl
20,1.6,Cc1cc(/C(N)=N/OC(=O)c2ccc(Cl)cc2)no1
21,> 47,O=S(=O)(Nc1ccc2c(c1)OCO2)c1ccc(F)c(F)c1
22,5.3,CCC(NC(=S)NC1CCCCC1)c1ccc(C)cc1 (stereo unspecified)
23,> 47.8,COc1cccc(C2(O)CCN(CC(=O)NCC3CC3)CC2)c1
24,> 58.6,O=C(c1ccco1)N1CCN(C(=O)c2ccccc2OCc2ccccc2)CC1

row,solubility kinetic [µg/mL],Compound
1,0.2,Cc1cc(N2CCN(c3ncccn3)CC2)nc2c(C)cccc12
2,> 51.1,CS(=O)(=O)N1CCC(C(=O)NCc2ccc3c(c2)OCO3)CC1
3,> 51.1,Cc1cc[n+](C(C)C(=O)c2ccc(Cl)cc2)cc1.[Br-] (stereo unspecified)
4,> 45.4,CN1C(=O)NC(c2cccc(F)c2)C2=C1CC(C)(C)CC2=O (stereo unspecified)
5,> 48.8,CS(=O)(=O)N(CC(=O)NCc1cccnc1)C1CCCCC1
6,0.4,Cc1ccc(OCc2nc(-c3ccccc3)no2)cc1
7,44.2,O=C(CSc1ccccc1C(=O)O)NCC1CCCCC1
8,0.3,Cc1ccc(NC(=O)c2c(-c3ccccc3Cl)noc2C)nc1
9,> 44,Nc1cc[n+](CC(=O)c2ccccc2)cc1.[Br-]
10,9.2,CC(C)C(=O)Nc1c(-c2ccccc2)c(=O)c2ccccc2n1C
11,42.2,CC(=O)Nc1ccc(S(=O)(=O)N[C@@H](C)C(=O)OCC(=O)c2ccc[nH]2)cc1
12,< 0.7,COc1cccc2cc(C(C)OC(=O)Nc3ccc(C)cc3)oc12 (stereo unspecified)
13,7.2,COC(=O)c1sc(-c2cccs2)cc1N
14,> 47.9,Cc1ccc(NC(=O)c2cccnc2)cc1S(=O)(=O)N(C)C
15,> 32,Cc1nc(-c2ccccc2)ccc1C(=O)O
16,21.1,Cc1ccc(NC(=O)CNC2CCCCC2)cc1Cl
17,41.2,CCOc1cc(C)c(S(=O)(=O)NCCCn2ccnc2)cc1C
18,> 42.4,COC(=O)CC(c1ccc(C#N)cc1)n1c(C)ccc1C (stereo unspecified)
19,2,CNC(=O)NC(=O)COc1ccc2oc3c(c2c1)CCCC3
20,1.3,O=C(CN1C(=O)NC2(CCOc3ccccc32)C1=O)c1ccc(Cl)cc1 (stereo unspecified)
21,3.1,CC(=O)c1ccc(Sc2ccccc2)c([N+](=O)[O-])c1
22,< 0.7,COc1ccc(C(=O)Nc2ccc(C(=O)c3ccccc3)cc2)cc1
23,1.1,Nc1ccc(-c2nc3cc([N+](=O)[O-])ccc3o2)cc1
24,< 0.2,Cc1ccc(N=C2NC(=O)/C(=C/c3cccnc3)S2)cc1C

row,solubility kinetic [µg/mL],Compound
1,25.5,Cn1c(=O)c(C(N)=S)cn(-c2ccccc2)c1=O
2,1.4,COC(=O)CCc1nc2cc(Cl)ccc2n(Cc2ccccc2)c1=O
3,> 41.3,O=C1N=C(N2CCOCC2)S/C1=C\c1cccnc1
4,< 0.4,O=C(Nc1cccc(C(F)(F)F)c1)c1c(O)c2ccccc2[nH]c1=O
5,36.4,CCOC(=O)CC(NC(=O)c1ccccc1)c1ccc(OC)cc1 (stereo unspecified)
6,28.2,Cc1csc(NC(=O)CCCc2cccs2)n1
7,4.7,CN(CC(=O)NC(=O)Nc1ccccc1F)Cc1ccccc1
8,> 41.2,O=C(CCC(=O)c1cccs1)NCc1ccncc1
9,19.5,CCOC(=O)N1CCN(C(=O)c2cc3ccc(OC)cc3[nH]2)CC1
10,> 52.4,COc1ccc(NC(=S)N(CCN(C)C)Cc2cccs2)cc1
11,3.4,Cc1[nH]c(=O)nc(SCc2ccc(Cl)c(Cl)c2)c1C#N
12,> 37.7,CCC(=O)OCC(=O)Nc1ccc2c(c1)OCO2
13,0.5,O=S(=O)(c1ccc(Cl)cc1)N1CCN(c2ccccn2)CC1
14,> 39.8,NNC(=O)Cn1c(-c2ccccc2)cc2ccccc21
15,> 51.5,CC(NCC(=O)Nc1ccccc1C(=O)NC1CC1)c1cccs1 (stereo unspecified)
16,1,O=C(c1ccc([N+](=O)[O-])cc1)N1CCc2ccccc21
17,> 38.6,Cc1nn(C)cc1S(=O)(=O)N1CCCCC1C (stereo unspecified)
18,> 33.9,CC(C(=O)Nc1ccccn1)c1ccccc1 (stereo unspecified)
19,1.2,CCc1nc(Nc2ccc(O)cc2)c2oc3ccccc3c2n1.Cl
20,> 44.6,O=C(O)c1ccn(COc2ccc(Br)cc2)n1
21,10.4,O=C(CN1C(=O)NC2(CCCc3ccccc32)C1=O)c1ccccc1F (stereo unspecified)
22,> 46.9,CCOC(=O)c1cc(S(=O)(=O)NCc2ccco2)cn1C
23,> 47.2,COc1ccc(Cl)cc1NC(=S)N1CC(C)OC(C)C1 (stereo unspecified)
24,< 0.3,Cc1ccc(C(=O)Nc2cccc3cccnc23)cc1C

row,solubility kinetic [µg/mL],Compound
1,17.1,CCOc1ccc(NC(=S)NCc2ccc3c(c2)OCO3)cc1
2,> 51.7,Cc1cc(Cl)ccc1NC(=O)CCC(=O)N/N=C/c1cccnc1
3,> 41.1,CC1CCCC(C)N1C(=O)c1cc(-c2ccco2)on1 (stereo unspecified)
4,25,C=CCn1c(SCc2ccccc2)nc2c1c(=O)[nH]c(=O)n2C
5,> 46.4,Cc1nnc(NC(=O)CN2C(=O)NC3(CCCC3)C2=O)s1
6,1,COc1cc(Cl)c(C)cc1NC(=O)Cc1cccs1
7,> 48.6,COc1ccc(C(=O)OCC(=O)NC(=O)NC(C)C)cc1OC
8,47,CC(C)CCC(C)NC(=O)Cc1ccc(S(=O)(=O)N2CCOCC2)s1 (stereo unspecified)
9,52.1,CCC(OC(=O)CN1C(=O)c2ccccc2C1=O)C(=O)NC1CCCC1 (stereo unspecified)
10,1.9,CC(C)Cc1ccc(C(C)C(=O)Nc2ccccc2O)cc1 (stereo unspecified)
11,26.7,Cc1ccc(N2C(=O)C3CCC(C)(C2=O)C3(C)C)cc1 (stereo unspecified)
12,> 70.3,O=C(O)c1cc(NS(=O)(=O)c2ccc(F)cc2)cc(NS(=O)(=O)c2ccc(F)cc2)c1
13,22.1,C=C(c1ccccc1C)[n+]1ccccc1
14,59.2,O=C(CC(c1ccccc1)c1cc(Cl)ccc1O)NCCCN1CCOCC1 (stereo unspecified)
15,> 38,CC(C)(C)NC(=O)C(=O)NNC(=O)c1ccco1
16,4.5,S=C(NCCCc1ccccc1)Nc1ccc(Br)cc1
17,> 46.5,O=[N+]([O-])/C(C(=C(Cl)Cl)N1CCOCC1)=C1\NCCO1
18,> 47.9,CC(C)C(=O)Nc1ccc(S(=O)(=O)Nc2ccccn2)cc1
19,35,Cc1cc(C)cc(-n2c(C)nc3cc(C(=O)O)ccc32)c1
20,8.9,Cc1cc(C(=O)OCC(=O)Nc2ccccc2C#N)c(C)o1
21,> 49.3,CCCC(=O)Nc1nnc(SCC(=O)N2CCCCC2)s1
22,> 48.8,O=C(CNC(=O)C1CCCC1)Nc1ccccc1Br

row,Compound,solubility kinetic [µg/mL]
1,COc1cc(C(=O)N2CCN(C3CCCCC3)CC2)cc(OC)c1OC.O=C(O)C(=O)O,> 67.9
2,O=C1CC(=O)N(Cc2ccccc2)C(=S)N1,> 35.1
3,CCNCCNc1ccc([N+](=O)[O-])c2cccnc12,36.4
